Results: patent publication US10799600B1, “Targeted nanoparticles” (nanoDERM Sciences, Inc., priority 2010, dated 2020)

Experiments:
[1] = system: multi-drug resistant (MRSA) Staphylococcus aureus (NRS-385); assay: Clearing zone test on tryptic soy agar against MRSA; format: cell-based; conditions: for resistance / sensitivity to control antibiotics: clinically relevant dose 10 μg/ml
Procedure: (§1) FIG. 8 nanogels conjugated with polymyxin B (PmxnB) or vancomycin (VCM) and/or loaded with 5 mg/ml penicillin/streptomycin (Pen/Strep), and tested on tryptic soy agar for activity against multi-drug resistant (MRSA) Staphylococcus aureus (NRS-385). (1) unmodified particle, Pen/Strep loaded; (2) unmodified particle; (3) Pen-Strep loaded and conjugated with PmxnB; (4) conjugated with PmxnB; (5) conjugated with VCM, Pen-Strep loaded; (6) conjugated with VCM; (7) conjugated with PmxnB/AMCA, Pen/Strep loaded; (8) conjugated with PmxnB/AMCA (fluorescent agent); (9) conjugated with VCM/AMCA, Pen/Strep loaded; (10) conjugated with VCM/AMCA; (11) PmxnB at 5 mg/ml; (12) VCM at 5 mg/ml; (13) Pen/Strep at 5 mg/nil; (14) PmxnB at 100 μg/ml; (15) VCM at 100 μg/ml; (16) Pen/Strep at 100 μg/ml; (17) PmxnB at 10 μg/ml; (18) VCM at 10 μg/ml; (19) Pen/Strep at 10 μg/ml.
(§2) Acinetobacter baumannii (a) treated with the hydrogel conjugated with polymyxin B (PMB) produced a clearing zone of ˜15 mm in diameter. […] Methicillin-resistant S. aureus (MRSA) (b) treated with VCM-conjugated particles produced a clearing zone of ˜15 mm in diameter.
(§3) The concept for targeted killing of bacterial pathogens with the hydrogels of the invention is illustrated in FIG. 1.

[2] = system: multi-drug resistant (and expanded-spectrum beta-lactamase resistant) Acinetobacter baumannii (BAA-1605); assay: Clearing zone test on tryptic soy agar against multi-drug resistant Acinetobacter baumannii; format: cell-based; conditions: for resistance / sensitivity to control antibiotics: clinically relevant dose 10 μg/ml, A. baumannii
Procedure: as §1, with “FIG. 7 nanogels conjugated” for “FIG. 8 nanogels conjugated”, “with 5 mg/nil penicillin/streptomycin (Pen/Strep),” for “with 5 mg/ml penicillin/streptomycin (Pen/Strep),”, “multi-drug resistant (and expanded-spectrum beta-lactamase resistant) Acinetobacter baumannii (BAA-1605). (1) unmodified” for “multi-drug resistant (MRSA) Staphylococcus aureus (NRS-385). (1) unmodified”, “at 5 mg/ml; (14) PmxnB” for “at 5 mg/nil; (14) PmxnB”
as §2, §3

Row | Compound | resistance / sensitivity to control antibiotics [1] | clearing zone ([1]; free antibiotic 10 μg/ml) | resistance / sensitivity to control antibiotics [2] | inhibition (clearing zone) ([2]; free control antibiotics (10 μg/ml), MDR A. baumannii) | inhibition (clearing zone) ([1]; free control antibiotics at 10 μg/ml) | clearing zone ([2]; free antibiotic 10 μg/ml, MDR A. baumannii)
1 | CN[C@H](CC(C)C)C(=O)N[C@H]1C(=O)N[C@@H](CC(N)=O)C(=O)N[C@H]2C(=O)N[C@H]3C(=O)N[C@H](C(=O)N[C@H](C(=O)O)c4cc(O)cc(O)c4-c4cc3ccc4O)[C@H](O)c3ccc(c(Cl)c3)Oc3cc2cc(c3O[C@@H]2O[C@H](CO)[C@@H](O)[C@H](O)[C@H]2O[C@H]2C[C@](C)(N)[C@H](O)[C@H](C)O2)Oc2ccc(cc2Cl)[C@H]1O [Free VCM, Vancomycin] | sensitive | ~6 mm | resistant | no inhibition | – | –
2 | polymyxin B [Free PMB] | resistant | – | sensitive | – | no inhibition | ~6 mm
